Assay results: patent publication US11098038B2, “Imidazole-based anticancer agents and derivatives thereof, and methods of making and using same” (The University of Toledo, priority 2017, dated 2021)

Legend:
[1] = system: CCRF-CEM; assay: NCI 60 screen, CCRF-CEM; assay type: cell-based; details: Homo sapiens, Leukemia
Procedure: (§1) The compounds synthesized were tested at the National Cancer Institute (NCI) for anti-proliferative activity in the 60 human tumor cell line assay.

[2] = system: HL-60(TB); assay: NCI 60 screen, HL-60(TB); assay type: cell-based; details: Homo sapiens, Leukemia
Procedure: as §1

[3] = system: MOLT-4; assay: NCI 60 screen, MOLT-4; assay type: cell-based; details: Homo sapiens, Leukemia
Procedure: as §1

[4] = system: RPMI-8226; assay: NCI 60 screen, RPMI-8226; assay type: cell-based; details: Homo sapiens, Leukemia
Procedure: as §1

[5] = system: A549/ATCC; assay: NCI 60 screen, A549/ATCC; assay type: cell-based; details: Homo sapiens, Non-Small Cell Lung
Procedure: as §1

[6] = system: EKVX; assay: NCI 60 screen, EKVX; assay type: cell-based; details: Homo sapiens, Non-Small Cell Lung
Procedure: as §1

[7] = system: HOP-62; assay: NCI 60 screen, HOP-62; assay type: cell-based; details: Homo sapiens, Non-Small Cell Lung
Procedure: as §1

[8] = system: HOP-92; assay: NCI 60 screen, HOP-92; assay type: cell-based; details: Homo sapiens, Non-Small Cell Lung
Procedure: as §1

[9] = system: NCI-H226; assay: NCI 60 screen, NCI-H226; assay type: cell-based; details: Homo sapiens, Non-Small Cell Lung
Procedure: as §1

[10] = system: NCI-H23; assay: NCI 60 screen, NCI-H23; assay type: cell-based; details: Homo sapiens, Non-Small Cell Lung
Procedure: as §1

[11] = system: NCI-322M; assay: NCI 60 screen, NCI-322M; assay type: cell-based; details: Homo sapiens, Non-Small Cell Lung
Procedure: as §1

[12] = system: NCI-460; assay: NCI 60 screen, NCI-460; assay type: cell-based; details: Homo sapiens, Non-Small Cell Lung
Procedure: as §1

[13] = system: NCI-H522; assay: NCI 60 screen, NCI-H522; assay type: cell-based; details: Homo sapiens, Non-Small Cell Lung
Procedure: as §1

[14] = system: COLO 205; assay: NCI 60 screen, COLO 205; assay type: cell-based; details: Homo sapiens, Colon
Procedure: as §1

[15] = system: HCC-2998; assay: NCI 60 screen, HCC-2998; assay type: cell-based; details: Homo sapiens, Colon
Procedure: as §1

[16] = system: HCT-116; assay: NCI 60 screen, HCT-116; assay type: cell-based; details: Homo sapiens, Colon
Procedure: as §1

[17] = system: HCT15; assay: NCI 60 screen, HCT15; assay type: cell-based; details: Homo sapiens, HCT-15, Colon
Procedure: as §1

[18] = system: HT29; assay: NCI 60 screen, HT29; assay type: cell-based; details: Homo sapiens, HT-29, Colon
Procedure: as §1

[19] = system: KM12; assay: NCI 60 screen, KM12; assay type: cell-based; details: Homo sapiens, Colon
Procedure: as §1

[20] = system: SW-620; assay: NCI 60 screen, SW-620; assay type: cell-based; details: Homo sapiens, Colon
Procedure: as §1

[21] = system: SF-268; assay: NCI 60 screen, SF-268; assay type: cell-based; details: Homo sapiens, CNS
Procedure: as §1

[22] = system: SF-295; assay: NCI 60 screen, SF-295; assay type: cell-based; details: Homo sapiens, CNS
Procedure: as §1

[23] = system: SF-539; assay: NCI 60 screen, SF-539; assay type: cell-based; details: Homo sapiens, CNS
Procedure: as §1

[24] = system: SNB-19; assay: NCI 60 screen, SNB-19; assay type: cell-based; details: Homo sapiens, CNS
Procedure: as §1

[25] = system: SNB-75; assay: NCI 60 screen, SNB-75; assay type: cell-based; details: Homo sapiens, CNS
Procedure: as §1

[26] = system: U251; assay: NCI 60 screen, U251; assay type: cell-based; details: Homo sapiens, U-251, CNS
Procedure: as §1

[27] = system: LOX IMVI; assay: NCI 60 screen, LOX IMVI; assay type: cell-based; details: Homo sapiens, Melanoma
Procedure: as §1

[28] = system: MALME-3M; assay: NCI 60 screen, MALME-3M; assay type: cell-based; details: Homo sapiens, Melanoma
Procedure: as §1

[29] = system: MDA-MB-435; assay: NCI 60 screen, MDA-MB-435; assay type: cell-based; details: Homo sapiens, Melanoma
Procedure: as §1

[30] = system: SK-MEL-2; assay: NCI 60 screen, SK-MEL-2 (first line); assay type: cell-based; details: Homo sapiens; Melanoma, SK-MEL-2 (first of two lines so named, r37)
Procedure: as §1

[31] = system: SK-MEL-2; assay: NCI 60 screen, SK-MEL-2 (second line); assay type: cell-based; details: Homo sapiens; Melanoma, SK-MEL-2 (second of two lines so named, r38)
Procedure: as §1

[32] = system: SK-MEL-5; assay: NCI 60 screen, SK-MEL-5; assay type: cell-based; details: Homo sapiens, Melanoma
Procedure: as §1

[33] = system: UACC-257; assay: NCI 60 screen, UACC-257; assay type: cell-based; details: Homo sapiens, Melanoma
Procedure: as §1

[34] = system: UACC-62; assay: NCI 60 screen, UACC-62; assay type: cell-based; details: Homo sapiens, Melanoma
Procedure: as §1

[35] = system: IGROV1; assay: NCI 60 screen, IGROV1; assay type: cell-based; details: Homo sapiens, IGROV-1, Ovarian
Procedure: as §1

[36] = system: OVCAR-3; assay: NCI 60 screen, OVCAR-3; assay type: cell-based; details: Homo sapiens, Ovarian
Procedure: as §1

[37] = system: OVCAR-4; assay: NCI 60 screen, OVCAR-4; assay type: cell-based; details: Homo sapiens, Ovarian
Procedure: as §1

[38] = system: OVCAR-5; assay: NCI 60 screen, OVCAR-5; assay type: cell-based; details: Homo sapiens, Ovarian
Procedure: as §1

[39] = system: OVCAR-8; assay: NCI 60 screen, OVCAR-8; assay type: cell-based; details: Homo sapiens, Ovarian
Procedure: as §1

[40] = system: NCI/ADR-RES; assay: NCI 60 screen, NCI/ADR-RES; assay type: cell-based; details: Homo sapiens, Ovarian
Procedure: as §1

[41] = system: SK-OV-3; assay: NCI 60 screen, SK-OV-3; assay type: cell-based; details: Homo sapiens, Ovarian
Procedure: as §1

[42] = system: 786-0; assay: NCI 60 screen, 786-0; assay type: cell-based; details: Homo sapiens, Renal
Procedure: as §1

[43] = system: A498; assay: NCI 60 screen, A498; assay type: cell-based; details: Homo sapiens, Renal
Procedure: as §1

[44] = system: ACHN; assay: NCI 60 screen, ACHN; assay type: cell-based; details: Homo sapiens, Renal
Procedure: as §1

[45] = system: CAKI-1; assay: NCI 60 screen, CAKI-1; assay type: cell-based; details: Homo sapiens, Renal
Procedure: as §1

[46] = system: RXF393; assay: NCI 60 screen, RXF393; assay type: cell-based; details: Homo sapiens, RXF 393, Renal
Procedure: as §1

[47] = system: SN12C; assay: NCI 60 screen, SN12C; assay type: cell-based; details: Homo sapiens, Renal
Procedure: as §1

[48] = system: TK-10; assay: NCI 60 screen, TK-10; assay type: cell-based; details: Homo sapiens, Renal
Procedure: as §1

[49] = system: UO-31; assay: NCI 60 screen, UO-31; assay type: cell-based; details: Homo sapiens, Renal
Procedure: as §1

[50] = system: PC-3; assay: NCI 60 screen, PC-3; assay type: cell-based; details: Homo sapiens, Prostatic
Procedure: as §1

[51] = system: DU-145; assay: NCI 60 screen, DU-145; assay type: cell-based; details: Homo sapiens, Prostatic
Procedure: as §1

[52] = system: MCF7; assay: NCI 60 screen, MCF7; assay type: cell-based; details: Homo sapiens, Breast
Procedure: as §1

[53] = system: MDA-MB-231/ATCC; assay: NCI 60 screen, MDA-MB-231/ATCC; assay type: cell-based; details: Homo sapiens, Breast
Procedure: as §1

[54] = system: HS 578T; assay: NCI 60 screen, HS 578T; assay type: cell-based; details: Homo sapiens, Breast
Procedure: as §1

[55] = system: BT-549; assay: NCI 60 screen, BT-549; assay type: cell-based; details: Homo sapiens, Breast
Procedure: as §1

[56] = system: T-47D; assay: NCI 60 screen, T-47D; assay type: cell-based; details: Homo sapiens, T47D, Breast
Procedure: as §1

[57] = system: MDA-MB-468; assay: NCI 60 screen, MDA-MB-468; assay type: cell-based; details: Homo sapiens, Breast
Procedure: as §1

## Cn1ccnc1C(=O)/C=C/c1ccc(CC(=O)Nc2ccc(C(F)(F)F)cc2)cc1 [Compound 26, (E)-2-(4-(3-(1-methyl-1H-imidazol-2-yl)-3-oxoprop-1-en-1-yl)phenyl)-N-(4-(trifluoromethyl)phenyl) acetamide]
other
  melting point: 222 to 226 °C

## Cn1ccnc1C(=O)/C=C/c1ccc(CC(=O)NC2CCCCC2)cc1 [Compound 29, (E)-N-cyclohexyl-2-(4-(3-(1-methyl-1-H-imidazol-2-yl)-3-oxoprop-1-en-1-yl)phenyl) acetamide]
other
  melting point: 182.5 °C

## Cn1ccnc1C(=O)/C=C/c1ccc(CC(=O)Nc2ccc(Cl)cc2)cc1 [Compound 30, (E)-N-(4-chlorophenyl)-2-(4-(3-(1-methyl-1H-imidazol-2-yl)-3-oxoprop-1-en-1-yl)phenyl)acetamide]
[1]
  GI50: 1.46 µM
[2]
  GI50: 4.81 µM
[3]
  GI50: 1.74 µM
[4]
  GI50: 0.959 µM
[5]
  GI50: 1.15 µM
[6]
  GI50: 1.56 µM
[7]
  GI50: 2.16 µM
[8]
  GI50: 2.5 µM
[9]
  GI50: 7.42 µM
[10]
  GI50: 2.04 µM
[11]
  GI50: 3.99 µM
[12]
  GI50: 1.58 µM
[13]
  GI50: 4.85 µM
[14]
  GI50: 9.44 µM
[15]
  GI50: 3.42 µM
[16]
  GI50: 1.31 µM
[17]
  GI50: 0.999 µM
[18]
  GI50: 0.889 µM
[19]
  GI50: 1.51 µM
[20]
  GI50: 1.25 µM
[21]
  GI50: 1.24 µM
[22]
  GI50: 7.39 µM
[23]
  GI50: 6.4 µM
[24]
  GI50: 1.77 µM
[25]
  GI50: 1.9 µM
[26]
  GI50: 1.1 µM
[27]
  GI50: 1.07 µM
[28]
  GI50: 14.2 µM
[29]
  GI50: 9.15 µM
[30]
  GI50: 25 µM
[31]
  GI50: 25 µM
[32]
  GI50: 14.4 µM
[33]
  GI50: 25 µM
[34]
  GI50: 6.5 µM
[35]
  GI50: 5.27 µM
[36]
  GI50: 1.03 µM
[37]
  GI50: 2.18 µM
[38]
  GI50: 9.98 µM
[39]
  GI50: 3.49 µM
[40]
  GI50: 2.22 µM
[41]
  GI50: 8.79 µM
[42]
  GI50: 1.6 µM
[43]
  GI50: 25 µM
[44]
  GI50: 15 µM
[45]
  GI50: 13.5 µM
[46]
  GI50: 2.97 µM
[47]
  GI50: 3.04 µM
[48]
  GI50: 12.3 µM
[49]
  GI50: 2.27 µM
[50]
  GI50: 1.37 µM
[51]
  GI50: 1.42 µM
[52]
  GI50: 0.891 µM
[53]
  GI50: 5.23 µM
[54]
  GI50: 15.7 µM
[55]
  GI50: 3.53 µM
[56]
  GI50: 4.3 µM
[57]
  GI50: 1.03 µM
other
  melting point: 250 °C

## O=C(Cc1ccc(/C=C/C(=O)c2ncc[nH]2)cc1)Nc1cc(F)c(F)c(F)c1 [Compound 33, (E)-2-(4-(3-(1H-imidazol-2-yl)-3-oxoprop-1-en-1-yl)phenyl)-N-(3,4,5-trifluorophenyl) acetamide]
other
  melting point: 255 °C

## O=C(Cc1ccc(/C=C/C(=O)c2ncc[nH]2)cc1)Nc1c(F)c(F)c(F)c(F)c1F [Compound 35, (E)-2-(4-(3-(1H-imidazol-2-yl)-3-oxoprop-1-en-1-yl)phenyl)-N-(perfluorophenyl)acetamide]
other
  melting point: 235 °C

## O=C(Cc1ccc(/C=C/C(=O)c2ncc[nH]2)cc1)Nc1cc(C(F)(F)F)cc(C(F)(F)F)c1 [Compound 37, (E)-2-(4-(3-(1H-imidazol-2-yl)-3-oxoprop-1-en-1-yl)phenyl)-N-(3,5-bis(trifluoromethyl)phenyl) acetamide]
other
  melting point: 243 °C
